The results in this text go back to patent US8604216B2, “Desferrithiocin derivatives and methods of use thereof” (University of Florida Research Foundation, Inc., priority 2003, dated 2013).

The structures appear in SMILES notation.

Data set [1] concerns iron-overloaded Cebus apella monkeys. As to the kind of experiment: Iron clearance in iron-overloaded Cebus apella monkeys. In kind it is in vivo. The conditions noted are these: oral. The protocol: (S)-2-(4′,5′-dimethoxyphenyl)-4-methylthiazoline-4-carboxylic acid (2) was administered to iron-overloaded Cebus apella monkeys. The protocol can be found in Bergeron, R. J. et al., “Methoxylatoin of Desazadesferrithiocin Analogues: Enhanced Iron Clearing Efficiency,” J Med Chem. 46:1470-1477 (2003), the contents of which are incorporated herein by reference. Briefly, the monkeys were iron overloaded with iron dextran administered intravenously to result in an iron loading of about 500 mg per kg of body weight. At least 20 half-lives, 60 days, elapsed before the animals were used in experiments evaluating iron chelators. The iron chelator was solubilized in 40% Cremophor RH-40/water (v/v) and were administered orally to the monkeys. Fecal and urine samples were collected at 24 hour intervals beginning 4 days prior to the administration of an iron chelator and continued for 5 days after the chelator was administered. Iron concentrations in stool and urine were determined by flame atomic absorption spectroscopy. Iron chelator efficiency was calculated by dividing the net iron clearance [total iron excretion (stool plus urine) minus background] by the theoretical iron clearance and multiplying by 100. The theoretical clearance of the iron chelator was generated on the basis of a 2:1 ligand/iron complex. At a dose of 114.2 μmol/kg, the efficiency of 2 was calculated to be 14.8±2.9%. […] Approximately 20% of the iron was excreted in the urine, while the majority (approximately 80%) was eliminated in the feces. In a separate experiment, 2 was administered to iron overloaded Cebus apella at a dose of 150 μmol/kg. In this experiment, the iron clearing efficiency was calculated to be 16.1±4.1%. This efficiency was within error of the lower dose of 2 […].

Data set [2] deals with non-iron overloaded, fasted rats. As to the kind of experiment: Iron clearance in bile duct-cannulated rats. Type of data set: in vivo. The conditions noted are these: male Sprague-Dawley rats. The protocol: (S)-2-(4′,5′-dimethoxyphenyl)-4-thiazoline-4-carboxylic acid (1) was administered to non-iron overloaded, fasted rats that had been subjected to routine bile duct cannulation. Briefly, male Sprague-Dawley rats averaging 450 g were housed in Nalgene plastic metabolic cages during the experimental period and given free access to water. The animals were anesthetized using sodium pentobarbital (55 mg/kg) administered intraperitoneally. The bile duct was cannulated using 22-gauge polyethylene tubing. The cannula was inserted into the duct about 1 cm from the duodenum and tied snugly in place. After threading through the shoulder, the cannula was passed from the rat to the swivel inside a metal torque-transmitting tether, which was attached to a rodent jacket around the animal's chest. The cannula was directed from the rat to a Gilson microfraction collector (Middleton, Wis.) by a fluid swivel mounted above the metabolic cage. Bile samples were collected at 3 hour intervals for 24 hours. The urine sample was taken at 24 hours and handling was as previously described in Bergeron, R. J., et al., J Med Chem. 34:2072-2078 (1991), the contents of which are incorporated herein by reference.

As for `COc1ccc(C2=N[C@@](C)(C(=O)O)CS2)cc1OC` [Compound 2, (S)-2-(4′,5′-dimethoxyphenyl)-4-methylthiazoline-4-carboxylic acid], in data set [1] (114.2 μmol/kg), the “share of iron eliminated in the feces” value is reported as “approximately 80%” and the “share of iron excreted in the urine” value was “Approximately 20%”. In addition, the iron clearing efficiency in data set [1] (114.2 μmol/kg, in 40% Cremophor RH-40/water, stool plus urine iron minus background vs theoretical 2:1 ligand/iron complex) is 14.8±2.9%. Also, the iron clearing efficiency in data set [1] (150 μmol/kg, separate experiment) was 16.1±4.1%.
Consider `COc1ccc([C@H]2NC(C(=O)O)=CS2)cc1OC` [Compound 1, (S)-2-(4′,5′-dimethoxyphenyl)-4-thiazoline-4-carboxylic acid], for which the tolerability result in data set [2] is listed as “tolerated the drug well”. Besides, the “efficiency of iron excretion” value in data set [2] (bile collected for 24 hours, urine at 24 hours) is listed as “less than 0.5%”.
